In US10150737B2, “Compounds for controlling arthropods” (priority 2013, dated 2018):

Tests used:
[1] = logP determination by HPLC on a reversed-phase column (C18); format: physicochemical; conditions: for logP^a): HPLC-MS method a); for log P: HPLC-MS, Table I-T3
[2] = test system: Rhipicephalus sanguineus; experiment: Rhipicephalus sanguineus - in vitro contact tests with adult brown dog ticks; format: in vivo; conditions: application rate 0.2 μg/cm2; after 48 h; ticks dead or moribund
Method: For the coating of the test tubes, 9 mg of active ingredient are first dissolved in 1 ml of acetone p.a. and then diluted to the desired concentration with acetone p.a. 250 μl of the solution are distributed homogeneously on the inner walls and base of a 25 ml test tube by turning and rocking on an orbital shaker (rocking rotation at 30 rpm for 2 h). With 900 ppm active ingredient solution and internal surface 44.7 cm^2, given homogeneous distribution, an area-based dose of 5 μg/cm^2 is achieved.
After the solvent has evaporated off, the tubes are populated with 5-10 adult dog ticks (Rhipicephalus sanguineus), sealed with a perforated plastic lid and incubated in a horizontal position in the dark at room temperature and ambient humidity. After 48 h, efficacy is determined. To this end, the ticks are knocked to the floor of the tube and incubated on a hotplate at 45-50° C. for not more than 5 min. Ticks which remain motionless on the floor or move in such an uncoordinated manner that they are unable to deliberately avoid the heat by climbing upwards are considered to be dead or moribund.
An efficacy of 100% means that all the ticks were dead or moribund. 0% efficacy means that none of the ticks had been harmed.

[3] = test system: Amblyomma hebraeum; experiment: Amblyomma hebaraeum test (tick nymphs, immersion); format: in vivo; conditions: application rate 100 ppm; tick nymphs immersed one minute; after 42 days
Method: (§1) Solvent: dimethyl sulphoxide
To produce an appropriate active ingredient formulation, 10 mg of active ingredient are mixed with 0.5 ml of dimethyl sulphoxide, and the concentrate is diluted with water to the desired concentration.
Tick nymphs (Amblyomma hebraeum) are placed into perforated plastic beakers and immersed in the desired concentration for one minute. The ticks are transferred on filter paper into a Petri dish and stored in a climate-controlled cabinet.
After 42 days, the kill in % is determined. 100% means that all of the ticks have been killed; 0% means that none of the ticks have been killed.

[4] = test system: Boophilus microplus; experiment: Boophilus microplus - injection test; format: in vivo; conditions: application rate 20 μg/animal; injection into engorged adult female ticks; after 7 days
In short: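 Five engorged adult female cattle ticks each received a 1 μl abdominal injection of compound solution in dimethyl sulphoxide. Fertile egg laying was assessed at 7 days, with doubtful eggs incubated about 42 days until hatch. 0% efficacy means all eggs fertile.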

[5] = test system: Ctenocephalides felis; experiment: Ctenocephalides felis - oral test; format: in vivo; conditions: application rate 100 ppm in citrated cattle blood; after 2 days
In short: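 Roughly 20 unfed adult C. felis imbibe compound-dosed citrated cattle blood (DMSO formulation) across parafilm from a cylinder above their gauze chamber; percentage mortality recorded at day 2.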

[6] = test system: Lucilia cuprina; experiment: Lucilia cuprina test; format: in vivo; conditions: application rate 100 ppm; L1 larvae; after 2 days
In short: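 Mortality (%) of first-instar blowfly larvae, about 20 per vessel, recorded 2 days after exposure to compound-treated minced horsemeat. Compound dissolved in dimethyl sulphoxide, then water-diluted to the desired concentration.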

[7] = test system: Musca domestica; experiment: Musca domestica test; format: in vivo; conditions: application rate 100 ppm; adult houseflies; after 2 days
In short: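 Ten adult Musca domestica are exposed to a sugar-soaked sponge carrying the water-diluted DMSO formulation; kill in % is read 2 days later.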

[8] = test system: Myzus persicae; experiment: Myzus persicae - spray test; format: in vivo; conditions: Chinese cabbage leaf discs, after 6 days
In short: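 Mortality of the green peach aphid, as % killed, was read 6 days after spraying infested Brassica pekinensis leaf discs. Compound formulated in acetone/dimethylformamide and made up with emulsifier-containing (1000 ppm) water.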

[9] = test system: Phaedon cochleariae; experiment: Phaedon cochleariae - spray test; format: in vivo; conditions: larvae on Chinese cabbage leaf discs, after 7 days
In short: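 Mortality of mustard beetle larvae was scored as % at day 7 on Brassica pekinensis leaf discs. Discs had been treated by spraying at the desired concentration, using an acetone/dimethylformamide solution diluted in water with 1000 ppm alkylaryl polyglycol ether, and dried before larvae were added.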

[10] = test system: Spodoptera frugiperda; experiment: Spodoptera frugiperda - spray test; format: in vivo; conditions: caterpillars on maize leaf discs, after 7 days
In short: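 Percent mortality of Spodoptera frugiperda caterpillars scored 7 days after placing them on dried maize leaf discs sprayed at the desired concentration. Spray formulation: compound dissolved in acetone/dimethylformamide, made up with water containing 1000 ppm emulsifier.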

[11] = test system: Tetranychus urticae; experiment: Tetranychus urticae - spray test, OP-resistant; format: in vivo; conditions: bean leaf discs, after 6 days
In short: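 Mortality (%) read on day 6 after spraying Phaseolus vulgaris leaf discs carrying all mite stages with formulations at the desired concentration. Formulation: active ingredient in acetone plus dimethylformamide, made up with emulsifier-containing water (1000 ppm alkylaryl polyglycol ether).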

[12] = test system: Ctenocephalides felis; experiment: Ctenocephalides felis - in vitro contact tests with adult cat fleas; format: in vivo; conditions: application rate 5 μg/cm2 (=500 g/ha); after 48 h; fleas dead or moribund
In short: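 Efficacy, as percentage of fleas dead or moribund, was scored at 48 h by knocking fleas to the tube base. Exposure was by contact with a dried acetone film of compound at 5 μg/cm^2 area dose; 5–10 adults per tube, room temperature, ambient humidity.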

[13] = test system: Boophilus microplus Parkhurst strain, SP-resistant; experiment: Boophilus microplus - dip test; format: in vivo; conditions: application rate 100 ppm; dip of engorged adult female ticks; after 7 days
Method: Test animals: cattle ticks (Boophilus microplus) Parkhurst strain, SP-resistant
as §1
10 mg of active ingredient are dissolved in 0.5 ml of dimethyl sulphoxide. For the purpose of producing a suitable formulation, the active ingredient solution is diluted with water to the concentration desired in each case.
This active ingredient formulation is pipetted into tubes. 8-10 adult engorged female cattle ticks (Boophilus microplus) are transferred into a further tube with holes. The tube is immersed into the active ingredient formulation, and all the ticks are completely wetted. After the liquid has run out, the ticks are transferred on filter discs into plastic dishes and stored in a climate-controlled room.
Efficacy is assessed after 7 days by laying of fertile eggs. Eggs which are not visibly fertile are stored in a climate-controlled cabinet until the larvae hatch after about 42 days. An efficacy of 100% means that none of the ticks has laid any fertile eggs; 0% means that all the eggs are fertile.

SMILES | logP^a) ([1]; reversed-phase column (C18)) | log P ([1]; reversed-phase column (C18)) | efficacy [2] | efficacy (kill) [3] | efficacy (laying of fertile eggs) [4] | efficacy (kill) [5] | efficacy (kill) [6] | efficacy (kill) [7] | efficacy ([8]; application rate 500 g/ha) | efficacy ([9]; application rate 500 g/ha) | efficacy ([10]; application rate 500 g/ha) | efficacy ([11]; application rate 500 g/ha) | efficacy [12] | efficacy (laying of fertile eggs) [13] | efficacy ([8]; application rate 100 g/ha) | efficacy ([9]; application rate 100 g/ha) | efficacy ([10]; application rate 100 g/ha) | efficacy ([11]; application rate 100 g/ha) | logP^a) [1]
CCc1cc(C(F)(C(F)(F)F)C(F)(F)F)ccc1-n1cc(-c2cnc(Cl)c(C(=O)NC3(C#N)CC3)c2)cn1 [I-T3-105] | 4.1 | 4.1 | 100% | 85% | 100% | 100% | 100% | 80% | 90% | 100% | 100% | 90% | – | – | – | – | – | – | –
Cc1ncc(-c2cnn(-c3c(Cl)cc(C(F)(C(F)(F)F)C(F)(F)F)cc3C(F)(F)F)c2)cc1C(=O)N(C)C1(C#N)CC1 [I-T3-131] | 3.9 | 3.9 | – | 100% | 100% | 100% | 100% | 100% | – | – | – | – | 100% | 100% | 90% | 100% | 100% | 100% | –
Cc1cc(C(F)(C(F)(F)F)C(F)(F)F)cc(C)c1-n1cc(-c2cnc(Cl)c(C(=O)N(C)C3(C#N)CC3)c2)cn1 [I-T3-103] | 4.3 | 4.3 | – | 90% | 100% | 100% | 100% | 100% | 90% | 100% | 100% | 100% | 100% | 100% | – | – | – | – | –
Cc1cc(C(F)(C(F)(F)F)C(F)(F)F)cc(C)c1-n1cc(-c2cnc(Cl)c(C(=O)N(C)C3CC3)c2)cn1 [I-T3-101] | 4.4 | 4.4 | – | 95% | 100% | 100% | 100% | 100% | – | 100% | 83% | 100% | 100% | 100% | 100% | – | – | – | –
Cc1ncc(-c2cnn(-c3c(Cl)cc(C(F)(C(F)(F)F)C(F)(F)F)cc3C(F)(F)F)c2)cc1C(=O)NC1CC1 [I-T3-124] | 3.5 | 3.5 | – | 100% | 100% | 100% | 100% | 100% | – | – | – | – | 100% | 100% | 100% | 100% | 100% | 100% | –
N#CC1(NC(=O)c2cc(-c3cnn(-c4c(Cl)cc(C(F)(F)F)cc4Cl)c3)cnc2Cl)CC1 [I-T3-95] | – | 3.1 | – | 100% | 100% | 100% | – | – | – | – | – | – | 100% | 100% | 90% | 100% | 100% | 100% | 3.1
Cc1cc(C(F)(C(F)(F)F)C(F)(F)F)cc(C(F)(F)F)c1-n1cc(-c2cnc(Cl)c(C(=O)N(C)C3CC3)c2)cn1 [I-T3-107] | 4.5 | 4.5 | – | 100% | 100% | 100% | 100% | 100% | 100% | 100% | 100% | 100% | 100% | 100% | – | – | – | – | –
CN(C(=O)c1cc(-c2cnn(-c3c(Cl)cc(C(F)(C(F)(F)F)C(F)(F)F)cc3Cl)c2)cnc1Cl)C1(C#N)CC1 [I-T3-102] | 4.3 | 4.3 | – | 90% | 100% | 100% | 100% | 100% | – | 100% | 100% | 90% | 100% | 100% | – | – | – | – | –
CN(C(=O)c1cc(-c2cnn(-c3c(Cl)cc(C(F)(C(F)(F)F)C(F)(F)F)cc3C(F)(F)F)c2)cnc1Cl)C1(C#N)CC1 [I-T3-116] | 4.3 | 4.3 | – | 100% | 100% | 100% | 100% | 100% | – | 100% | 100% | 90% | 100% | 100% | 100% | – | – | – | –
Cc1ncc(-c2cnn(-c3c(Cl)cc(C(F)(C(F)(F)F)C(F)(F)F)cc3C(F)(F)F)c2)cc1C(=O)NC1(C#N)CC1 [I-T3-125] | 3.8 | 3.8 | – | 100% | 100% | 100% | 100% | 100% | – | – | – | – | 100% | 100% | 100% | – | 100% | 100% | –
CN(C(=O)c1cc(-c2cnn(-c3c(Cl)cc(C(F)(C(F)(F)F)C(F)(F)F)cc3Cl)c2)cnc1Cl)C1CC1 [I-T3-100] | – | 4.4 | – | 100% | 100% | 100% | 100% | 100% | 100% | 100% | 100% | 100% | 100% | 100% | – | – | – | – | 4.4
